≈ marks a conversion by molar mass, not a printed value. Where two headings read alike, the source gives them in different places.
Assays:
E. coli strain MG1655 = assay: Growth inhibition (methacrylate ester toxicity) test, E. coli; format: cell-based; conditions: Escherichia coli
[1] = system: S. cerevisiae strain DSM70449; assay: Growth inhibition (methacrylate ester toxicity) test, S. cerevisiae; format: cell-based; conditions: Saccharomyces cerevisiae, read-out: IC50 range
[2] = logPo/w (1-octanol/water partition coefficient); format: physicochemical
Text: In embodiments, the organic solvent has a logPo/w value of greater than or equal to 3.0. More preferably, the organic solvent has a logPo/w value of greater than or equal to 3.6, 3.7, 3.8, 3.9 or 4.0. logPo/w is defined as the logarithm of the partition coefficient of a particular solvent between a standardized 1:1 mixture of 1-octanol and water. The present inventors have shown that, with increasing logPo/w value there is a decrease in the resultant microorganism toxicity. Particularly preferred solvents are higher alkanes of C6 and above which may be linear or branched, cyclic alkanes of C7 and above and aromatic compounds, particularly benzene, substituted with one or more substituents of C3 and above, particularly alkyl substituents which may be linear or branched.

[3] = Extraction of BMA and MMA from biotransformation medium into dodecane (GC-FID); format: physicochemical; conditions: for average amount extracted into dodecane: across all samples
Protocol: The samples from the BMA/MMA extraction experiments were analysed using gas chromatography under the following operating conditions:
Biomass was harvested from each flask and a separate biotransformation conducted. BMA and MMA levels in dodecane following solvent extraction was quantified by gas chromatography flame ionization detector (GC-FID).
In a 1 I baffled shake flask, a starter culture of 200 ml LB medium containing 200 µg/ml ampicillin was grown for 16.33 hours. The culture was back diluted to OD600 0.2 into 5 1 I baffled shake flasks containing 300 ml fresh LB medium and left to grow at 30° C. and 250 rpm for 23.35 hours. The biomass was then harvested by centrifugation at 5000 rpm and 4° C. for 15 minutes. Each cell pellet was washed with 100 mM sodium phosphate (pH 6.7) and the centrifugation step was repeated. The biomass was resuspended in the required volume of biotransformation medium until an OD600 of 25 was reached.
Biotransformation reactions were conducted in 5×250 ml sealed Schott bottles at 30° C. and 180 rpm for 24 hours.
Samples were taken for GC-FID analysis at 5 hour and 24 hour time points. At each time point 5 ml sample was removed and transferred to a 15 ml falcon tube. Acetonitrile (5 ml) was added in addition to dodecane (1 ml). The mixture was vigorously shaken at >800 rpm for 10 minutes before centrifugation at 3900 rpm and 20° C. for 20 minutes. A 500 μl sample was taken from both the organic and aqueous phases, filtered through a 0.45 μm filter and placed in a crimped lid gas chromatography vial prior to injection.
Quantification of BMA and MMA levels in biotransformation samples was achieved by using external standard calibration […] obtained by preparing volumetric stock solutions of BMA and MMA at known concentrations.

[4] = Solubility limit in the fermentation medium; format: physicochemical; conditions: plasma or biological fluid
Protocol: In embodiments where the C3-C12 methacrylate ester is butyl methacrylate, it is particularly preferred that the titre of butyl methacrylate in the fermentation medium is at least 120, 130, 140, 150 or 200 mg/l. […] At such a concentration, the need for an additional extraction solvent may be negated.

[5] = MG1655, E. coli grown in MSX medium, from final biomass concentrations, read-out: IC50 range
[6] = E. coli MG1655 in LB complex medium, final biomass after 72 hours, concentration that halves MaxOD600, read-out: IC50 range
[7] = S. cerevisiae DSM70449 in YEPD complex medium, final biomass after 72 hours, concentration that halves MaxOD600

Row | SMILES | IC50 (E. coli strain MG1655; [5]) [µg/mL] | IC50 (E. coli strain MG1655; [6]) [µg/mL] | IC50 [1, 7] [µg/mL] | logPo/w [2] | average amount extracted into dodecane [3] | extraction efficiency into dodecane compared to MMA ([3]; biotransformations 2 and 3 (40 mg/l added)) [×] | extraction efficiency into dodecane compared to MMA ([3]; biotransformations 4 and 5 (100 mg/l added)) [×] | solubility [4] [µg/mL] | logPo/w ([2]; 1-octanol/water (1:1)) | IC50 (E. coli strain MG1655; MG1655, 72 h, read-out: IC50 range) [µg/mL] | IC50 (E. coli strain MG1655; MG1655, read-out: IC50 range) [µg/mL] | IC50 ([1]; DSM70449, 72 h) [µg/mL]
1 | C=C(C)C(=O)OC(C)C [iPMA, isopropyl methacrylate] | 1180 to 1770 (≈ 9.21 to 13.8 mM) | 1180 to 1770 (≈ 9.21 to 13.8 mM) | 660 to 990 (≈ 5.15 to 7.72 mM) | 1.81 | – | – | – | – | – | – | – | –
2 | C=C(C)C(=O)OCCCC [BMA, butyl methacrylate] | 70 to 110 (≈ 0.492 to 0.774 mM) | 70 to 110 (≈ 0.492 to 0.774 mM) | 40 to 70 (≈ 0.281 to 0.492 mM) | – | around 35.6% | 2.7 | 3.3 | ~220 (≈ 1.55 mM) | 2.57 | – | – | –
3 | C=C(C)C(=O)OC [MMA, methyl methacrylate] | – | – | – | – | ~10.5% | – | – | – | 0.95 | 3190 to 4250 (≈ 31.9 to 42.5 mM) | 3190 to 4250 (≈ 31.9 to 42.5 mM) | 730 to 1450 (≈ 7.29 to 14.5 mM)

Reference: patent publication US11981951B2, “Process for the production of methyl methacrylate” (Mitsubishi Chemical UK Limited, priority 2016, dated 2024)
